Experimental data as given in patent US11066445B2, “Immunomodulators acting as antagonists of PD-1” (Bristol-Myers Squibb Company, priority 2017, dated 2021).
Where two headings read alike, the source gives them in different places. Starred links: 1 amine or outer side, 2 acyl side, 3 side chain; linkers in the order of their positions; H or OH if unused. Positions of bridges follow the written chain, without caps; N, C: chain ends. Non-standard residues stand in square brackets, D forms with d. Residues, ends and D or L forms follow the SMILES beside them. *: point of attachment. X1 = O=C(O)CCCCCCCCCCCCCCC(=O)N[C@@H](CCC(=O)NCCCOCCOCCOCCCN*)C(=O)O; X6 = COc1ccc2c(c1)c(C[C@H](N[*:1])C(=O)[*:2])cn2CC(=O)O; Hyp = O=C(O)[C@@H]1C[C@@H](O)CN1; NMeNle = CCCC[C@H](NC)C(=O)O; NMeA = CN[C@@H](C)C(=O)O; Dab = NCC[C@H](N)C(=O)O; Dap = NC[C@H](N)C(=O)O

Biological target: T1, PD-1-Ig binding to PD-L1-TVMV-His (PD-L1-His) (Homo sapiens, UniProt Q9NZQ7)
T1 construct: hPDL1(19-239)-TVMV-His; TVMV protease cleavage site (C); made in house; host or cells: HEK293T cells
Assay: PD-1/PD-L1 Homogenous Time-Resolved Fluorescence (HTRF) binding assay
Details: PD-1-Ig (20 nM) / PD-L1-His (10 nM), read-out: LE HTRF hPD1 hPDL1 IC50
Source text: Methods for Testing the Ability of Macrocyclic Peptides to Compete for the Binding of Pd-1 to Pd-L1 Using Homogenous Time-Resolved Fluorescence (HTRF) Binding Assays
The ability of the macrocyclic peptides of the present disclosure to bind to PD-L1 was investigated using a PD-1/PD-L1 Homogenous Time-Resolved Fluorescence (HTRF) binding assay.
Homogenous Time-Resolved Fluorescence (HTRF) Assays of Binding of Soluble PD-1 to Soluble PD-L1. Soluble PD-1 and soluble PD-L1 refers to proteins with carboxyl-end truncations that remove the transmembrane-spanning regions and are fused to heterologous sequences, specifically the Fc portion of the human immunoglobuling G sequence (Ig) or the hexahistidine epitope tag (His). All binding studies were performed in an HTRF assay buffer consisting of dPBS supplemented with 0.1% (w/v) bovine serum albumin and 0.05% (v/v) Tween-20. For the PD-1-Ig/PD-L1-His binding assay, inhibitors were pre-incubated with PD-L1-His (10 nM final) for 15 m in 4 μl of assay buffer, followed by addition of PD-1-Ig (20 nM final) in 1 μl of assay buffer and further incubation for 15 m. PD-L1 fusion proteins from either human, cynomologous macaques, mouse, or other species were used. HTRF detection was achieved using europium crypate-labeled anti-Ig monoclonal antibody (1 nM final) and allophycocyanin (APC) labeled anti-His monoclonal antibody (20 nM final). Antibodies were diluted in HTRF detection buffer and 5 μl was dispensed on top of binding reaction. The reaction was allowed to equilibrate for 30 minutes and signal (665 nm/620 nm ratio) was obtained using an EnVision fluorometer. Additional binding assays were established between PD-1-Ig/PD-L2-His (20 and 5 nM, respectively), CD80-His/PD-L1-Ig (100 and 10 nM, respectively) and CD80-His/CTLA4-Ig (10 and 5 nM, respectively). Binding/competition studies between biotinylated Compound No. 71 and human PD-L1-His were performed as follows. Macrocyclic peptide inhibitors were pre-incubated with PD-L1-His (10 nM final) for 60 minutes in 4 μl of assay buffer followed by addition of biotinylated Compound No. 71 (0.5 nM final) in 1 μl of assay buffer. Binding was allowed to equilibrate for 30 minutes followed by addition of europium crypated labeled Streptavidin (2.5 pM final) and APC-labeled anti-His (20 nM final) in 5 μl of HTRF buffer. The reaction was allowed to equilibrate for 30 m and signal (665 nm/620 nm ratio) was obtained using an EnVision fluorometer.
Recombinant Proteins. Carboxyl-truncated human PD-1 (amino acids 25-167) with a C-terminal human Ig epitope tag [hPD-1 (25-167)-3S-IG] and human PD-L1 (amino acids 18-239) with a C-terminal His epitope tag [hPD-L1(19-239)-tobacco vein mottling virus protease cleavage site (TVMV)-His] were expressed in HEK293T cells and purified sequentially by recombinant Protein A affinity chromatography and size exclusion chromatography. Human PD-L2-His (Sino Biologicals), CD80-His (Sino Biologicals), CTLA4-Ig (RnD Systems) were all obtained through commercial sources.
Ranges are as follows: A=0.010-0.060 μM; B=0.0011-0.009 μM; C=0.0003-0.0010 μM.

T1 sequence (Q9NZQ7 with tags, fused parts or gaps): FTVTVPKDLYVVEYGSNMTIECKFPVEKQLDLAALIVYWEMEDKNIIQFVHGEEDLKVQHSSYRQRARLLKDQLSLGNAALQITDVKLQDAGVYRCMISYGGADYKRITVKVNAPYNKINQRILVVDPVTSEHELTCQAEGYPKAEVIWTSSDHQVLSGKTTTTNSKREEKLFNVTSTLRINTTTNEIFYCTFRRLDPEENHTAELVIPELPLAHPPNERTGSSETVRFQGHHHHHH

SMILES	IC50 (range classes) [nM]	IC50 (numeric values) [nM]
CCCC[C@H]1C(=O)N(C)[C@@H](CCCC)C(=O)N[C@@H](CC(C)C)C(=O)N[C@H](C(=O)NCC(=O)N[C@@H](CC(=O)NCCCOCCOCCOCCCNC(=O)CC[C@H](NC(=O)CCCCCCCCCCCCCCC(=O)O)C(=O)O)C(=O)O)CSCC(=O)N[C@@H](Cc2ccc(O)cc2)C(=O)N(C)[C@@H](C)C(=O)N[C@@H](CC(N)=O)C(=O)N2CCC[C@H]2C(=O)N[C@@H](CN)C(=O)N[C@@H](CC(C)C)C(=O)N2C[C@H](O)C[C@H]2C(=O)N[C@@H](Cc2c[nH]c3ccccc23)C(=O)N[C@@H](CCN)C(=O)N[C@@H](Cc2cn(CC(=O)O)c3ccc(OC)cc23)C(=O)N1C [Example 21] ({CH2CO}-Y[NMeA]NP[Dap]L[Hyp]W[Dab][X6][NMeNle][NMeNle]LCGD(X1)-OH; thioether N-14)	1.1 to 9	
CCCC[C@H]1C(=O)N(C)[C@@H](CCCC)C(=O)N[C@@H](CC(C)C)C(=O)N[C@H](C(=O)N[C@@H](Cc2cn(CCOCCOCCOCCOCCOCCOCCOCCOCCOCCOCCOCCNC(=O)CC[C@H](NC(=O)CCCCCCCCCCCCCCCCC(=O)O)C(=O)O)nn2)C(=O)O)CSCC(=O)N[C@@H](Cc2ccc(O)cc2)C(=O)N(C)[C@@H](C)C(=O)N[C@@H](CC(N)=O)C(=O)N2CCC[C@H]2C(=O)N[C@@H](CN)C(=O)N[C@@H](CC(C)C)C(=O)N2C[C@H](O)C[C@H]2C(=O)N[C@@H](Cc2c[nH]c3ccccc23)C(=O)N[C@@H](CCN)C(=O)N[C@@H](Cc2nn(CC(=O)O)c3ccccc23)C(=O)N1C [Example 22]		0.6
CCCC[C@H]1C(=O)N(C)[C@@H](CCCC)C(=O)N[C@@H](CC(C)C)C(=O)N[C@H](C(=O)NCC(=O)N[C@@H](Cc2cn(CCOCCOCCOCCOCCOCCOCCOCCOCCOCCOCCOCCNC(=O)CC[C@H](NC(=O)CCCCCCCCCCCCCCCCC(=O)O)C(=O)O)nn2)C(=O)O)CSCC(=O)N[C@@H](Cc2ccc(O)cc2)C(=O)N(C)[C@@H](C)C(=O)N[C@@H](CC(N)=O)C(=O)N2CCC[C@H]2C(=O)N[C@@H](CN)C(=O)N[C@@H](CC(C)C)C(=O)N2C[C@H](O)C[C@H]2C(=O)N[C@@H](Cc2c[nH]c3ccccc23)C(=O)N[C@@H](CCN)C(=O)N[C@@H](Cc2nn(CC(=O)OC)c3ccccc23)C(=O)N1C [Example 23]	0.3 to 1	
CCCC[C@H]1C(=O)N(C)[C@@H](CCCC)C(=O)N[C@@H](CC(C)C)C(=O)N[C@H](C(=O)N[C@@H](Cc2cn(CCOCCOCCOCCOCCOCCOCCOCCOCCOCCOCCOCCNC(=O)CC[C@H](NC(=O)CCCCCCCCCCCCCCCCC(=O)O)C(=O)O)nn2)C(=O)O)CSCC(=O)N[C@@H](Cc2ccc(O)cc2)C(=O)N(C)[C@@H](C)C(=O)N[C@@H](CC(N)=O)C(=O)N2CCC[C@H]2C(=O)N[C@@H](CN)C(=O)N[C@@H](CC(C)C)C(=O)N2C[C@H](O)C[C@H]2C(=O)N[C@@H](Cc2c[nH]c3ccccc23)C(=O)N[C@@H](CCN)C(=O)N[C@@H](Cc2nn(CC(=O)O)c3ccc(OC)cc23)C(=O)N1C [Example 24]	0.3 to 1	
CCCC[C@H]1C(=O)N(C)[C@@H](CCCC)C(=O)N[C@@H](CC(C)C)C(=O)N[C@H](C(=O)N[C@@H](Cc2cn(CCOCCOCCOCCOCCOCCOCCOCCOCCOCCOCCOCCNC(=O)CC[C@H](NC(=O)CCCCCCCCCCCCCCCCC(=O)O)C(=O)O)nn2)C(=O)O)CSCC(=O)N[C@@H](Cc2ccc(O)cc2)C(=O)N(C)[C@@H](C)C(=O)N[C@@H](CC(N)=O)C(=O)N2CCC[C@H]2C(=O)N[C@@H](CN)C(=O)N[C@@H](CC(C)C)C(=O)N2C[C@H](O)C[C@H]2C(=O)N[C@@H](Cc2c[nH]c3ccccc23)C(=O)N[C@@H](CCN)C(=O)NC(Cc2cn(CC(=O)O)c3ncccc23)C(=O)N1C (some centres unmarked) [Example 25]	10 to 60	
CCCC[C@H]1C(=O)N(C)[C@@H](CCCC)C(=O)N[C@@H](CC(C)C)C(=O)N[C@H](C(=O)N[C@@H](Cc2cn(CCOCCOCCOCCOCCOCCOCCOCCOCCOCCOCCOCCNC(=O)CC[C@H](NC(=O)CCCCCCCCCCCCCCCCC(=O)O)C(=O)O)nn2)C(=O)O)CSCC(=O)N[C@@H](Cc2ccc(O)cc2)C(=O)N(C)[C@@H](C)C(=O)N[C@@H](CC(N)=O)C(=O)N2CCC[C@H]2C(=O)N[C@@H](CN)C(=O)N[C@@H](CC(C)C)C(=O)N2C[C@H](O)C[C@H]2C(=O)N[C@@H](Cc2c[nH]c3ccccc23)C(=O)N[C@@H](CCN)C(=O)N[C@@H](Cc2cn(CC(=O)O)c3cccnc23)C(=O)N1C [Example 26]	1.1 to 9	
CCCC[C@H]1C(=O)N(C)[C@@H](CCCC)C(=O)N[C@@H](CC(C)C)C(=O)N[C@H](C(=O)NCC(=O)N[C@@H](Cc2cn(CCOCCOCCOCCOCCOCCOCCOCCOCCOCCOCCOCCNC(=O)CCC(NC(=O)CCCCCCCCCCCCCCCCC(=O)O)C(=O)O)nn2)C(=O)O)CSCC(=O)N[C@@H](Cc2ccc(O)cc2)C(=O)N(C)[C@@H](C)C(=O)N[C@@H](CC(N)=O)C(=O)N2CCC[C@H]2C(=O)N[C@@H](CN)C(=O)N[C@@H](CC(C)C)C(=O)N2C[C@H](O)C[C@H]2C(=O)N[C@@H](Cc2c[nH]c3ccccc23)C(=O)N[C@@H](CCN)C(=O)N[C@@H](Cc2cn(CC(=O)O)c3ccc(OC)cc23)C(=O)N1C (some centres unmarked) [Example 27]	0.3 to 1	
CCCC[C@H]1C(=O)N(C)[C@@H](CCCC)C(=O)N[C@@H](CC(C)C)C(=O)N[C@H](C(=O)NCC(=O)N[C@@H](Cc2cn(CCOCCOCCOCCOCCOCCOCCOCCOCCOCCOCCOCCNC(=O)CCC(NC(=O)CCCCCCCCCCCCCCCCC(=O)O)C(=O)O)nn2)C(=O)O)CSCC(=O)N[C@@H](Cc2ccc(O)cc2)C(=O)N(C)[C@@H](C)C(=O)N[C@@H](CC(N)=O)C(=O)N2CCC[C@H]2C(=O)N[C@@H](CN)C(=O)N[C@@H](CC(C)C)C(=O)N2C[C@H](O)C[C@H]2C(=O)N[C@@H](Cc2c[nH]c3ccccc23)C(=O)N[C@@H](CCN)C(=O)N[C@@H](Cc2cn(CC(=O)O)c3cccnc23)C(=O)N1C (some centres unmarked) [Example 28]	10 to 60	
CCCC[C@H]1C(=O)N(C)[C@@H](CCCC)C(=O)N[C@@H](CC(C)C)C(=O)N[C@H](C(=O)NCC(=O)N[C@@H](Cc2cn(CCOCCOCCOCCOCCOCCOCCOCCOCCOCCOCCOCCNC(=O)CC[C@H](NC(=O)CCCCCCCCCCCCCCCCC(=O)O)C(=O)O)nn2)C(=O)O)CSCC(=O)N[C@@H](Cc2ccc(O)cc2)C(=O)N(C)[C@@H](C)C(=O)N[C@@H](CC(N)=O)C(=O)N2CCC[C@H]2C(=O)N[C@@H](CN)C(=O)N[C@@H](CC(C)C)C(=O)N2C[C@H](O)C[C@H]2C(=O)N[C@@H](Cc2c[nH]c3ccccc23)C(=O)N[C@@H](CCN)C(=O)N[C@@H](Cc2nn(CC(=O)O)c3ccccc23)C(=O)N1C [Example 29]	0.3 to 1	
CCCC[C@H]1C(=O)N(C)[C@@H](CCCC)C(=O)N[C@@H](CC(C)C)C(=O)N[C@H](C(=O)NCC(=O)N[C@@H](Cc2cn(CCOCCOCCOCCOCCOCCOCCOCCOCCOCCOCCOCCNC(=O)CC[C@H](NC(=O)CCCCCCCCCCCCCCCCC(=O)O)C(=O)O)nn2)C(=O)O)CSCC(=O)N[C@@H](Cc2ccc(O)cc2)C(=O)N(C)[C@@H](C)C(=O)N[C@@H](CC(N)=O)C(=O)N2CCC[C@H]2C(=O)N[C@@H](CN)C(=O)N[C@@H](CC(C)C)C(=O)N2C[C@H](O)C[C@H]2C(=O)N[C@@H](Cc2c[nH]c3ccccc23)C(=O)N[C@@H](CCN)C(=O)N[C@@H](Cc2cn(CC(=O)NS(C)(=O)=O)c3ccccc23)C(=O)N1C [Example 30]	1.1 to 9	
CCCC[C@H]1C(=O)N(C)[C@@H](CCCC)C(=O)N[C@@H](CC(C)C)C(=O)N[C@H](C(=O)NCC(=O)N[C@@H](Cc2cn(CCOCCOCCOCCOCCOCCOCCOCCOCCOCCOCCOCCNC(=O)CC[C@H](NC(=O)CCCCCCCCCCCCCCCCC(=O)O)C(=O)O)nn2)C(=O)O)CSCC(=O)N[C@@H](Cc2ccc(O)cc2)C(=O)N(C)[C@@H](C)C(=O)N[C@@H](CC(N)=O)C(=O)N2CCC[C@H]2C(=O)N[C@@H](CN)C(=O)N[C@@H](CC(C)C)C(=O)N2C[C@H](O)C[C@H]2C(=O)N[C@@H](Cc2c[nH]c3ccccc23)C(=O)N[C@@H](CCN)C(=O)N[C@@H](Cc2cn(CC(=O)O)c3ncccc23)C(=O)N1C [Example 31]	0.3 to 1	
